EC50 data for 15 compounds are collected here from patent publication US11230556B2 (Merck Sharp & Dohme Corp., priority 2016, dated 2022).

The target in the assay is T1, human M4 muscarinic acetylcholine receptor (Homo sapiens, UniProt P08173).
T1 construct: expressed in transfected cells; host or cells: CHO-K1
T1 sequence (P08173 1-479): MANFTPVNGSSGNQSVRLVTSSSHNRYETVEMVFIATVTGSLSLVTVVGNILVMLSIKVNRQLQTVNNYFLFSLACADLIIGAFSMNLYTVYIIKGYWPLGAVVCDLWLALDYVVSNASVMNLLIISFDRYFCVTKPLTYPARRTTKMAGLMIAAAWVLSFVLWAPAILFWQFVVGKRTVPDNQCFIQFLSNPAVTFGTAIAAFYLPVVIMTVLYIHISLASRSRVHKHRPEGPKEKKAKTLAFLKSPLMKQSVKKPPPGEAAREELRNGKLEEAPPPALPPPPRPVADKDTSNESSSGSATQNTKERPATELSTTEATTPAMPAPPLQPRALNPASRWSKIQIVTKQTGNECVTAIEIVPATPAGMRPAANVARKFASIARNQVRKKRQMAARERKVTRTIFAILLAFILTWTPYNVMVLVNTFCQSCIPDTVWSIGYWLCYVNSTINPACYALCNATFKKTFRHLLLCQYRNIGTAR
Kind of assay: human FLIPR-based M4 PAM assay (CHO-K1 cells with human M4 receptor and Gαqi5, calcium dye fluorescence, acetylcholine at 20% of maximum response). The format is cell-based. The following applies: inflection point (IP) of 4 parameter logistic dose response curve, human M4 receptor + Gαqi5, FLIPR Tetra. An outline of the steps: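 CHO-K1 cells were loaded with calcium dye at 37 °C for ~1 h. Fluorescence (ex 470–495/em 515–575 nm) was read for 4 min after test compound at increasing concentrations, then 3.5 min after acetylcholine at an EC20; sometimes a third addition at EC70 followed. The value is the inflection point of a 4-parameter logistic fit.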
Regarding `COc1ccc(OC2CCN(c3nc4cnn(C)c4cc3C)CC2)cn1` [Example 66, 5-(4-((6-methoxypyridin-3-yl)oxy)piperidin-1-yl)-1,6-dimethyl-1H-pyrazolo[4,3-b]pyridine], the EC50 was 1380 nM.

`COc1ccc(OC2CCN(c3nc4nccn4cc3C)CC2)cn1` [Example 67, 7-(4-((6-methoxypyridin-3-yl)oxy)piperidin-1-yl)-6-methylimidazo[1,2-a]pyrimidine]: the EC50 was determined as 765 nM.

Take `COc1ccc(OC2CCN(c3nc4c(cc3C)C(=O)CC4)CC2)cn1` [Example 69, 2-(4-((6-Methoxypyridin-3-yl)oxy)piperidin-1-yl)-3-methyl-6,7-dihydro-5H-cyclopenta[b]pyridin-5-one]: the 50% effective concentration (EC50) amounted to 42 nM. For the compound `COc1ccc(OC2CCN(c3nc4c(cc3C)C(=O)C(F)(F)C4)CC2)cn1` [Example 70, 6,6-difluoro-2-(4-((6-methoxypyridin-3-yl)oxy)piperidin-1-yl)-3-methyl-6,7-dihydro-5H-cyclopenta[b]pyridin-5-one], the EC50 came out at 63 nM. In the case of `COc1ccc(OC2CCN(c3nc4c(cc3C)CCC4)CC2)cn1` [Example 72, 2-(4-((6-Methoxypyridin-3-yl)oxy)piperidin-1-yl)-3-methyl-6,7-dihydro-5H-cyclopenta[b]pyridine] it was 1510 nM; in that of `COc1ccc(OC2CCN(c3nc4c(cc3C)C(=O)C(C)(C)C4)CC2)cn1` [Example 73, 2-(4-((6-Methoxypyridin-3-yl)oxy)piperidin-1-yl)-3,6,6-trimethyl-6,7-dihydro-5H-cyclopenta[b]pyridin-5-one], 292 nM; in that of `COc1ccc(OC2CCN(c3nc4c(cc3C)C(=O)C(C)C4)CC2)cn1` (stereo not drawn) [Example 74, 2-(4-((6-Methoxypyridin-3-yl)oxy)piperidin-1-yl)-3,6-dimethyl-6,7-dihydro-5H-cyclopenta[b]pyridin-5-one], 119 nM. For `COc1ccc(OC2CCN(c3nc4c(cc3C)S(=O)(=O)NC4)CC2)cn1` [Example 75, 5-(4-((6-Methoxypyridin-3-yl)oxy)piperidin-1-yl)-6-methyl-2,3-dihydroisothiazolo[4,5-b]pyridine 1,1-dioxide] the value was 165 nM; for `Cc1cc2c(nc1N1CCC(Oc3cccc(C#N)c3)CC1)CNS2(=O)=O` [Example 76, 3-((1-(6-methyl-1,1-dioxido-2,3-dihydroisothiazolo[4,5-b]pyridin-5-yl)piperidin-4-yl)oxy)benzonitrile], 221 nM; for `Cc1cc2c(nc1N1CCC(Oc3ccccc3)CC1)CNS2(=O)=O` [Example 77, 6-methyl-5-(4-phenoxypiperidin-1-yl)-2,3-dihydroisothiazolo[4,5-b]pyridine 1,1-dioxide], 275 nM.

As for `COc1ccc(OC2CCN(c3nc4[nH]c(=O)[nH]c4cc3C)CC2)cn1` [Example 79, 5-(4-((6-Methoxypyridin-3-yl)oxy)piperidin-1-yl)-6-methyl-1,3-dihydro-2H-imidazo[4,5-b]pyridin-2-one], the EC50 stood at 1170 nM. As for `COc1ccc(OC2CCN(c3nc4nnc(C(F)(F)F)n4cc3C)CC2)cn1` [Example 80, 7-(4-((6-Methoxypyridin-3-yl)oxy)piperidin-1-yl)-6-methyl-3-(trifluoromethyl)-[1,2,4]triazolo[4,3-a]pyrimidine], the EC50 was 3090 nM. For `COc1ccc(OC2CCN(c3nc4c(cc3C)C(=O)N3CCOCC43)CC2)cn1` (stereo not drawn) [Example 82, 2-(4-((6-methoxypyridin-3-yl)oxy)piperidin-1-yl)-3-methyl-7,8,10,10a-tetrahydro-5H-pyrido[2′,3′:3,4]pyrrolo[2,1-c][1,4]oxazin-5-one] the value was 92 nM; for “(R)-2-(4-((1,3-dihydroisobenzofuran-5-yl)oxy)piperidin-1-yl)-3-methyl-8,9,10,10a-tetrahydropyrido[2′,3′:3,4]pyrrolo[1,2-a]pyrazin-5(7H)-one and (S)-2-(4-((1,3-dihydroisobenzofuran-5-yl)oxy)piperidin-1-yl)-3-methyl-8,9,10,10a-tetrahydropyrido[2′,3′:3,4]pyrrolo[1,2-a]pyrazin-5(7H)-one [Example 83B]”, 25 nM.

In the case of “(R)-2-(4-((6-Methoxypyridin-3-yl)oxy)piperidin-1-yl)-3,7-dimethylfuro[3,4-b]pyridin-5(7H)-one and (S)-2-(4-((6-methoxypyridin-3-yl)oxy)piperidin-1-yl)-3,7-dimethylfuro[3,4-b]pyridin-5(7H)-one [Example 29A]”, the EC50 was determined as 267 nM.

Usually EC50 stands for the midpoint of the concentration-response curve.
